“Also recorded” adds a separate entry of the source.
Key:
[1] = tested on: male Sprague Dawley rats; experiment: Rat fear conditioning (contextual and auditory fear memory); assay type: in vivo
Description: For one site drug infusion, 23-guage guide cannulas were implanted bilaterally into the dorsal hippocampus (CA1 region: 3.2 mm posterior to Bregma, ±1.5˜1.7 mm lateral from the midline, 1.7 mm beneath the surface of the skull). For two sites drug infusion, guide cannulas were implanted bilaterally into the dorsal hippocampus (first injection site: 2.8 mm posterior to Bregma, ±1.5 mm lateral from the midline, 1.7 mm beneath the surface of the skull; second injection site: 3.8 mm posterior to Bregma, ±1.8˜2.2 mm lateral from the midline, 1.3 mm beneath the surface of the skull). The dummy cannulas, cut 0.5 mm longer than guide cannulas, were inserted into the guide cannulas to prevent clogging and reduce the risk of infection. Rats were given at least 5 days to recover before experimentation. A 30-gauge injection cannula that was 1.5 mm lower than the guide was used for intra-hippocampal infusion. 1.0 μl Ro25-6981 (0.1 μg /μl) or saline was delivered bilaterally at the rate of 0.5 μl/min using a pump. After infusion, the cannulas were left in place for an additional 2 min to allow the solution to diffuse away from the cannula tip. Fifteen minutes later, rats were conditioned by one pairing of a tone (2.2 kHz, 96 dB, 30 s) and a foot shock (2.0 mA, 2 s) that terminated at the same time as the tone. […] Rats were returned to the conditioning chamber and allowed to stay in the chamber for 3-min without footshock.
However, the effects of local hippocampal injections of NR2B antagonists on fear conditioning have not been examined. Ro25-6981 (5 μg in 0.5 μl) was bilaterally injected into dorsal hippocampi (FIG. 8B) before conditional training. […] The NR2B specific antagonist was also injected into the ACC and hippocampus of rats and contextual and auditory fear memory was then measured. […] Hippocampal injections of a higher dose of Ro25-6981 (5 μg in 1 μl per side) bilaterally or multiple injections of the same dose (2 per side) were then tested to determine their affect on either contextual or auditory fear memory.

[2] = tested on: mice; experiment: Locomotor activity in the open field; assay type: in vivo, mouse; settings: bilateral ACC microinjection, recorded 15 minutes or one day after injection
Description: NR2B subunit inhibition in adult mice was examined to determine whether this impairs the formation of contextual fear memory. Three days after bilateral siRNA electroporation, mice were trained (or conditioned) and then tested for contextual fear memory by assessing freezing behavior in the same environmental context after 24 hours. There was no difference in baseline freezing or in freezing immediately following the shock/tone pairing between groups; however, there was a significant difference between groups when tested in the contextual environment one day later (n=8 for EGFP only; n=10 for control siRNA; n=8 for shock only; n=11 for NR2B siRNA; one-way ANOVA, p=0.005; FIG. 8C). […] Since the activation of NR2B was suppressed throughout the training and memory test, the roles of NR2B during the acquisition and retrieval of fear memory cannot be distinguished. Recently, electric stimulation of the ACC was reported to induce fear memory one and three days after stimulation (Tang et al., 2005), which implies that the ACC may be involved in the acquisition of fear memory. To directly address this issue, the effect of NR2B blockade using Ro25-6981 was examined. […] In order to rule out any locomotor side-effects, locomotor activity in the open field was tested after bilateral ACC microinjection of Ro25-6981 (n=4) or vehicle (n=4).

[3] = tested on: NR1/NR2A; settings: cited from earlier work
[4] = tested on: NR2B; experiment: Western blot of NR2B in ACC after siRNA electroporation; assay type: in vivo, mouse; settings: four days after electroporation
Description: Equal amounts of protein from the ACC and hippocampus were separated and electrotransferred onto PDVF membranes (Invitrogen), which were probed with anti-NR2A, anti-NR2B (Chemicon), and anti-PSD-95 (ABR) and with β-actin (Sigma) as a loading control. The membranes were incubated with horseradish peroxidase-conjugated secondary antibodies (anti-mouse IgG for PSD-95 and anti-rabbit IgG for the other primary antibodies), and bands were visualized using an ECL system (Perkin Elmer). Synaptosomal membrane fractions (LP1) were prepared as previously described (Dunah and Standaert, 2001) and solubilized using 1% SDS in TEVP buffer: 10 mM Tris-HCl, pH 7.4, 1 mM EDTA, 1 mM EGTA, 1× protease inhibitor cocktail (Sigma), and 1× phosphatase inhibitor cocktail 1 and 2 (Sigma). […] Results are expressed as means±SEM. […]
To inhibit NR2B expression specifically in the prefrontal cortex, including the ACC, siRNA was bilaterally delivered against NR2B with a reporter plasmid encoding EGFP by microelectroporation (Wei et al., 2003) (FIG. 8A). […] The expression levels of other NMDAR subunits (NR2A and NR1) and AMPA receptor subunit GluR1 were measured, and actin was used as a control in the ACCs of NR2B siRNA and control siRNA electroporated mice.

[5] = hippocampal injections 5 μg in 1 μl per side, single or multiple (2 per side)

Molecule	contextual memory ([1]; 0.1 μg in 1 μl bilaterally into dorsal hippocampus before fear conditioning)	auditory fear memory [1, 5]	contextual fear memory [1, 5]	contextual fear memory ([1]; in 1 μl per side bilaterally into the ACC before conditioning, tested one day after training)	auditory fear memory ([1]; injected in the ACC)	auditory fear memory ([1]; injected in the hippocampus)	locomotor activity in the open field [2]	IC50 [3]	NR2B expression compared to control siRNA electroporated control [4]
C[C@@H](CN1CCC(Cc2ccccc2)CC1)[C@@H](O)c1ccc(O)cc1 [Ro25-6981]	did not impair contextual fear memory; also recorded: did not produce a significant impairment	Neither single nor multiple injections of Ro25-6981 produced a significant impairment	Neither single nor multiple injections of Ro25-6981 produced a significant impairment	impaired contextual fear memory; also recorded: significant reduction in contextual fear memory	did not affect auditory fear memory	did not affect auditory fear memory	no difference in locomotor activity	52 µM	
NR2B siRNA: siRNA corresponding to NR2B, sense 5′-GGAUGAGUCCUCCAUGUUCtt-3′, antisense 5′-GAACAUGGAGGACUCAUCCtt-3′, Silencer Pre-designed siRNA ID #61879, Ambion (sense GGAUGAGUCCUCCAUGUUCTT; antisense GAACAUGGAGGACUCAUCCTT; chemistry not given here)									64.8±4.6%
